This note sets out measurements from article PMC9890585 (Chemical Science, 2022).

The target of the assay is Concanavalin A (Con A) (Canavalia ensiformis, UniProt P02866). It counts as biochemical, jack bean (Canavalia ensiformis). The settings on record: 1000 equiv. added after 180 min.

Each structure is given as a SMILES string.

On to `COC1OC(CO)C(O)C(O)C1O` [methyl-α-D-mannose], for which the “effect of competitive inhibitor on Con A-complex aggregates” value is “immediate deaggregation”.
